System: HCT116 colorectal cancer cells
Experiment: Cisplatin sensitization assay (96 h MTS cell viability);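 also: compound concentration needed to lower the IC50 of Cisplatin alone by a set fold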
Assay type: cell-based
Conditions: Cisplatin sensitization value
Outline: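 HCT116 cells were dosed simultaneously with compound and cisplatin as a full matrix of 2-fold serial dilutions from 10 μM top final concentration. Incubation was 96 h at 37° C., 5% CO2, followed by 1 h with MTS reagent for the viability read-out. Sensitization values were binned into +++, ++ and + categories.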

Row | Compound | Cisplatin Sensitization Assay
1 | Cc1cncc(NC(=O)c2c(N)nn3cc(F)cnc23)c1N1CCC(C(=O)N2CCNCC2)CC1 [I-G-56, 2-amino-6-fluoro-N-(5-methyl-4-(4-(piperazine-1-carbonyl)piperidin-1-yl)pyridin-3-yl)pyrazolo[1,5-a]pyrimidine-3-carboxamide] | +++ (Compounds with a Cisplatin sensitization value of <0.02 μM are marked with “+++.”)
2 | Nc1nn2cc(F)cnc2c1C(=O)Nc1cnccc1OC1CCC(C(=O)O)CC1 (centres unmarked) [I-O-8, 4-((3-(2-amino-6-fluoropyrazolo[1,5-a]pyrimidine-3-carboxamido)pyridin-4-yl)oxy)cyclohexanecarboxylic acid] | + (Compounds with a Cisplatin sensitization value >0.2 μM but <5 μM are marked with “+.”)
3 | CN(C)C(=O)C1CCN(c2ccncc2NC(=O)c2c(N)nn3cc(F)cnc23)CC1 [I-G-2, 2-amino-N-(4-(4-(dimethylcarbamoyl)piperidin-1-yl)pyridin-3-yl)-6-fluoropyrazolo[1,5-a]pyrimidine-3-carboxamide] | +++ (Compounds with a Cisplatin sensitization value of <0.02 μM are marked with “+++.”)
4 | Cc1nc(C)n(-c2ccncc2NC(=O)c2c(N)nn3cc(F)cnc23)n1 [I-N-218, 2-amino-N-(4-(3,5-dimethyl-1H-1,2,4-triazol-1-yl)pyridin-3-yl)-6-fluoropyrazolo[1,5-a]pyrimidine-3-carboxamide] | + (Compounds with a Cisplatin sensitization value >0.2 μM but <5 μM are marked with “+.”)
5 | Nc1nn2cc(F)cnc2c1C(=O)Nc1cncc(F)c1N1CCN(C2CCOC2)CC1 (centres unmarked) [I-N-122, 2-amino-6-fluoro-N-(5-fluoro-4-(4-(tetrahydrofuran-3-yl)piperazin-1-yl)pyridin-3-yl)pyrazolo[1,5-a]pyrimidine-3-carboxamide] | ++ (Compounds with a Cisplatin sensitization value >0.02 μM but <0.2 μM are marked with “++.”)
6 | Nc1nn2cc(F)cnc2c1C(=O)Nc1cncc(F)c1C1CCN(C2COC2)CC1 [I-C-13, 2-amino-6-fluoro-N-(5-fluoro-4-(1-(oxetan-3-yl)piperidin-4-yl)pyridin-3-yl)pyrazolo[1,5-a]pyrimidine-3-carboxamide] | ++ (Compounds with a Cisplatin sensitization value >0.02 μM but <0.2 μM are marked with “++.”)
7 | Nc1nn2cc(F)cnc2c1C(=O)Nc1cncc(F)c1N1CCC(OCCN2CCCC2)CC1 [I-N-167, 2-amino-6-fluoro-N-(5-fluoro-4-(4-(2-(pyrrolidin-1-yl)ethoxy)piperidin-1-yl)pyridin-3-yl)pyrazolo[1,5-a]pyrimidine-3-carboxamide] | +++ (Compounds with a Cisplatin sensitization value of <0.02 μM are marked with “+++.”)
8 | Nc1nn2cc(Cl)cnc2c1C(=O)Nc1cnccc1OC1CCOCC1 [I-O-61, 2-amino-6-chloro-N-(4-((tetrahydro-2H-pyran-4-yl)oxy)pyridin-3-yl)pyrazolo[1,5-a]pyrimidine-3-carboxamide] | +++ (Compounds with a Cisplatin sensitization value of <0.02 μM are marked with “+++.”)
9 | CN1CC2(CCN(c3c(F)cncc3NC(=O)c3c(N)nn4cc(F)cnc34)CC2)OC1=O [I-N-229, 2-amino-6-fluoro-N-(5-fluoro-4-(3-methyl-2-oxo-1-oxa-3,8-diazaspiro[4.5]decan-8-yl)pyridin-3-yl)pyrazolo[1,5-a]pyrimidine-3-carboxamide] | +++ (Compounds with a Cisplatin sensitization value of <0.02 μM are marked with “+++.”)
10 | Nc1nn2cc(F)cnc2c1C(=O)Nc1cncc(F)c1N1CCN2C(=O)CCC[C@@H]2C1 [I-N-280, (R)-2-amino-6-fluoro-N-(5-fluoro-4-(6-oxohexahydro-1H-pyrido[1,2-a]pyrazin-2(6H)-yl)pyridin-3-yl)pyrazolo[1,5-a]pyrimidine-3-carboxamide] | +++ (Compounds with a Cisplatin sensitization value of <0.02 μM are marked with “+++.”)
11 | Nc1nn2cc(Cl)cnc2c1C(=O)Nc1cnccc1N1CCC(N2CCn3cncc3C2)CC1 [I-N-101, 2-amino-6-chloro-N-(4-(4-(5,6-dihydroimidazo[1,5-a]pyrazin-7(8H)-yl)piperidin-1-yl)pyridin-3-yl)pyrazolo[1,5-a]pyrimidine-3-carboxamide] | ++ (Compounds with a Cisplatin sensitization value >0.02 μM but <0.2 μM are marked with “++.”)
12 | Nc1nn2cc(F)cnc2c1C(=O)Nc1cncc(F)c1N1CCN2C(=O)CCC2C1 (centres unmarked) [I-N-163, 2-amino-6-fluoro-N-(5-fluoro-4-(6-oxohexahydropyrrolo[1,2-a]pyrazin-2(1H)-yl)pyridin-3-yl)pyrazolo[1,5-a]pyrimidine-3-carboxamide] | +++ (Compounds with a Cisplatin sensitization value of <0.02 μM are marked with “+++.”)
13 | N#CC1CN(C(=O)C2CCN(c3ccncc3NC(=O)c3c(N)nn4cc(F)cnc34)CC2)C1 [I-G-81, 2-amino-N-(4-(4-(3-cyanoazetidine-1-carbonyl)piperidin-1-yl)pyridin-3-yl)-6-fluoropyrazolo[1,5-a]pyrimidine-3-carboxamide] | +++ (Compounds with a Cisplatin sensitization value of <0.02 μM are marked with “+++.”)
14 | Cc1ccnn1-c1ccncc1NC(=O)c1c(N)nn2cc(F)cnc12 [I-N-223, 2-amino-6-fluoro-N-(4-(5-methyl-1H-pyrazol-1-yl)pyridin-3-yl)pyrazolo[1,5-a]pyrimidine-3-carboxamide] | ++ (Compounds with a Cisplatin sensitization value >0.02 μM but <0.2 μM are marked with “++.”)
15 | CN1CCN(c2c(Cl)cncc2NC(=O)c2c(N)nn3cc(Cl)cnc23)CC1 [I-N-41, 2-amino-6-chloro-N-(5-chloro-4-(4-methylpiperazin-1-yl)pyridin-3-yl)pyrazolo[1,5-a]pyrimidine-3-carboxamide] | +++ (Compounds with a Cisplatin sensitization value of <0.02 μM are marked with “+++.”)
16 | CN1CCC[C@@H]1C(=O)N1CCN(c2ccncc2NC(=O)c2c(N)nn3cc(F)cnc23)CC1 [I-N-199, (R)-2-amino-6-fluoro-N-(4-(4-(1-methylpyrrolidine-2-carbonyl)piperazin-1-yl)pyridin-3-yl)pyrazolo[1,5-a]pyrimidine-3-carboxamide] | +++ (Compounds with a Cisplatin sensitization value of <0.02 μM are marked with “+++.”)
17 | Nc1nn2cc(F)cnc2c1C(=O)Nc1cnccc1N1CCC2(CCNC2)CC1 [I-N-255, N-(4-(2,8-diazaspiro[4.5]decan-8-yl)pyridin-3-yl)-2-amino-6-fluoropyrazolo[1,5-a]pyrimidine-3-carboxamide] | ++ (Compounds with a Cisplatin sensitization value >0.02 μM but <0.2 μM are marked with “++.”)
18 | Cc1ccn(-c2ccncc2NC(=O)c2c(N)nn3cc(F)cnc23)n1 [I-N-225, 2-amino-6-fluoro-N-(4-(3-methyl-1H-pyrazol-1-yl)pyridin-3-yl)pyrazolo[1,5-a]pyrimidine-3-carboxamide] | ++ (Compounds with a Cisplatin sensitization value >0.02 μM but <0.2 μM are marked with “++.”)
19 | Nc1nn2cc(F)cnc2c1C(=O)Nc1cnccc1OC1CCS(=O)(=O)CC1 [I-O-45, 2-amino-N-(4-((1,1-dioxidotetrahydro-2H-thiopyran-4-yl)oxy)pyridin-3-yl)-6-fluoropyrazolo[1,5-a]pyrimidine-3-carboxamide] | +++ (Compounds with a Cisplatin sensitization value of <0.02 μM are marked with “+++.”)
20 | CN1CC2CN(C(=O)C3CCN(c4c(F)cncc4NC(=O)c4c(N)nn5cc(F)cnc45)CC3)CC2C1 (centres unmarked) [I-G-18, 2-amino-6-fluoro-N-(5-fluoro-4-(4-(5-methyloctahydropyrrolo[3,4-c]pyrrole-2-carbonyl)piperidin-1-yl)pyridin-3-yl)pyrazolo[1,5-a]pyrimidine-3-carboxamide] | +++ (Compounds with a Cisplatin sensitization value of <0.02 μM are marked with “+++.”)
21 | N#CCc1cnc2c(C(=O)Nc3cnccc3N3CCOC(CN)C3)c(N)nn2c1 (centres unmarked) [I-N-90, 2-amino-N-(4-(2-(aminomethyl)morpholino)pyridin-3-yl)-6-(cyanomethyl)pyrazolo[1,5-a]pyrimidine-3-carboxamide] | + (Compounds with a Cisplatin sensitization value >0.2 μM but <5 μM are marked with “+.”)
22 | CN1CCN(c2ccncc2NC(=O)c2c(N)nn3cc(F)cnc23)CC1=O [I-N-209, 2-amino-6-fluoro-N-(4-(4-methyl-3-oxopiperazin-1-yl)pyridin-3-yl)pyrazolo[1,5-a]pyrimidine-3-carboxamide] | +++ (Compounds with a Cisplatin sensitization value of <0.02 μM are marked with “+++.”)
23 | COCCS(=O)(=O)C1CCN(c2ccncc2NC(=O)c2c(N)nn3cc(F)cnc23)CC1 [I-N-208, 2-amino-6-fluoro-N-(4-(4-((2-methoxyethyl)sulfonyl)piperidin-1-yl)pyridin-3-yl)pyrazolo[1,5-a]pyrimidine-3-carboxamide] | +++ (Compounds with a Cisplatin sensitization value of <0.02 μM are marked with “+++.”)
24 | COc1cncc(NC(=O)c2c(N)nn3cc(F)cnc23)c1-c1cccnc1 [I-C-82, 2-amino-6-fluoro-N-(5′-methoxy-[3,4′-bipyridin]-3′-yl)pyrazolo[1,5-a]pyrimidine-3-carboxamide] | +++ (Compounds with a Cisplatin sensitization value of <0.02 μM are marked with “+++.”)
25 | CN1CCC(c2c(F)cncc2NC(=O)c2c(N)nn3cc(F)cnc23)CC1 [I-C-14, 2-amino-6-fluoro-N-(5-fluoro-4-(1-methylpiperidin-4-yl)pyridin-3-yl)pyrazolo[1,5-a]pyrimidine-3-carboxamide] | + (Compounds with a Cisplatin sensitization value >0.2 μM but <5 μM are marked with “+.”)
26 | Cc1nncn1-c1ccncc1NC(=O)c1c(N)nn2cc(F)cnc12 [I-N-263, 2-amino-6-fluoro-N-(4-(3-methyl-4H-1,2,4-triazol-4-yl)pyridin-3-yl)pyrazolo[1,5-a]pyrimidine-3-carboxamide] | + (Compounds with a Cisplatin sensitization value >0.2 μM but <5 μM are marked with “+.”)
